How the values were obtained:
[1] = system: A/Netherlands/241/11 (NL11); format: cell-based, influenza A virus
NL09 and NL11 = format: cell-based, influenza A virus
NL09 and NL11 strains = format: cell-based, influenza A virus
[2] = system: IAV laboratory strains (PR8 and WSN) and pandemic H1N1 (CA09); parameters: method as in earlier work; conditions: A549 cells, AF 1μM, 15 hpi; cited from earlier work
NL09 or NL11 = format: cell-based, influenza A virus
[3] = system: human precision-cut lung slices (hPCLSs); test: LDH-Glo cytotoxicity assay in hPCLSs; conditions: [10×]max: AF 50 μM, DA 100 μM, RG 25 μM; relative to Triton-X 100 positive control, 20% cut-off
NL11 (H3N2) = format: cell-based, influenza A virus
NL09 or NL11 strain = format: cell-based, influenza A virus
[4] = system: A/Netherlands/602/09 (NL09); format: cell-based, influenza A virus
B-Raf = conditions: no reference given; cited from earlier work
c-Raf = conditions: cited from earlier work; for higher selectivity for c-Raf than vemurafenib: no reference given
NL09 = format: cell-based, influenza A virus
[5] = system: A(H1N1)pdm09 A/Netherlands/602/09 (NL09); format: cell-based, influenza A virus
IAV = conditions: single donor; cited from earlier work

CN(C)C/C=C/C(=O)Nc1cc2c(Nc3ccc(F)c(Cl)c3)ncnc2cc1O[C@H]1CCOC1 [AF, afatinib]
relative infectivity, NL11 [1]: 65% | relative cell viability over mock-infected treated controls (A549 cells): only marginally decreased the relative viability | highest viral titer reduction at MOI = 0.1 (NL09 and NL11): 1000 fold | time dependence of effect on virus replication (NL09 and NL11): greater effect on virus replication at the early time points (24 hpi) | effect on viral titers, NL11 compared with NL09 (NL09 and NL11 strains): significantly stronger in NL11-infected cells | reduction in viral titers (NL09 and NL11 strains): 100- to 3000 fold | effect on viral replication [2]: 2- to 5 fold | significance of viral titer reduction in infected hPCLSs (NL09 or NL11): consistently significant after 48 hpi | time at which inhibition of virus replication in hPCLSs was observed (NL09 or NL11): ≤ 12 hpi | cytotoxicity (LDH release) in hPCLSs at [10×]max [3]: > 20% | % Luminescence (relative to untreated / normalized to GFP), NL11 infection (NL11 (H3N2)): 50% | effect on viral entry (NP staining) (NL09 or NL11 strain): inhibited

Cn1cc(-c2cc3c(N4CCN(c5ncc([C@@](C)(N)c6ccc(F)cc6)cn5)CC4)ncnn3c2)cn1 [AV, avapritinib]
relative infectivity, NL11 [1]: 81% | highest viral titer reduction at MOI = 0.1 (NL09 and NL11): 10 fold | reduction of the titers of both viruses (NL09 and NL11 strains): 10- to 30 fold | time at which inhibition of virus replication in hPCLSs was observed (NL09 or NL11): ≤ 12 hpi | effect on viral entry (NP staining) (NL09 or NL11 strain): no obvious effects on viral entry | relative infectivity, NL09 [4]: 80%

CC(C)(C)c1nc(-c2cccc(NS(=O)(=O)c3c(F)cccc3F)c2F)c(-c2ccnc(N)n2)s1 [DA, dabrafenib]
relative infectivity, NL11 [1]: 126% | highest viral titer reduction at MOI = 0.1 (NL09 and NL11): 100 fold | higher selectivity for B-Raf than vemurafenib (B-Raf): 10- to 100 fold | effect on viral titers, NL11 compared with NL09 (NL09 and NL11 strains): significantly stronger in NL11-infected cells | reduction in viral titers (NL09 and NL11 strains): 10- to 100 fold | significance of viral titer reduction in infected hPCLSs (NL09 or NL11): consistently significant after 48 hpi | time at which inhibition of virus replication in hPCLSs was observed (NL09 or NL11): ≤ 12 hpi | higher selectivity for c-Raf than vemurafenib (c-Raf): 10 fold | effect on viral entry (NP staining) (NL09 or NL11 strain): inhibited | relative infectivity, NL09 [4]: 117%

O=C(Nc1cnn2ccc(N3CCC[C@@H]3c3cc(F)ccc3F)nc12)N1CC[C@H](O)C1 [LA, larotrectinib]
relative infectivity, NL11 [1]: 91% | highest viral titer reduction at MOI = 0.1 (NL09 and NL11): 100 fold | time dependence of effect on virus replication (NL09 and NL11): greater effect on virus replication at the early time points (24 hpi) | reduction of the titers of both viruses (NL09 and NL11 strains): 10- to 30 fold | relative intracellular to extracellular (I/E) viral RNA Ct ratio (egress) (NL09): did not observe significant differences in any single step of viral replication | time at which inhibition of virus replication in hPCLSs was observed (NL09 or NL11): ≥ 72 hpi | NL09 viral titer reduction [5]: ~ 9 fold | effect on viral entry (NP staining) (NL09 or NL11 strain): no obvious effects on viral entry | relative infectivity, NL09 [4]: 60%

CCOc1cc2ncc(C#N)c(Nc3ccc(OCc4ccccn4)c(Cl)c3)c2cc1NC(=O)/C=C/CN(C)C [NE, neratinib]
relative infectivity, NL11 [1]: 92% | highest viral titer reduction at MOI = 0.1 (NL09 and NL11): 100 fold | time dependence of effect on virus replication (NL09 and NL11): greater effect on virus replication at the early time points (24 hpi) | reduction in viral titers (NL09 and NL11 strains): 40- to 50 fold | reduction of the titers of both viruses (NL09 and NL11 strains): 10- to 30 fold | antiviral effect in hPCLSs compared to A549 cells (NL09 or NL11): more potent antiviral effect | time at which inhibition of virus replication in hPCLSs was observed (NL09 or NL11): ≤ 12 hpi | effect on viral entry (NP staining) (NL09 or NL11 strain): inhibited | relative infectivity, NL09 [4]: 70%

CNC(=O)c1cc(Oc2ccc(NC(=O)Nc3ccc(Cl)c(C(F)(F)F)c3)c(F)c2)ccn1 [RG, regorafenib]
relative infectivity, NL11 [1]: 80% | highest viral titer reduction at MOI = 0.1 (NL09 and NL11): 10,000 fold | time dependence of effect on virus replication (NL09 and NL11): greater effect on virus replication at the early time points (24 hpi) | higher selectivity for B-Raf than vemurafenib (B-Raf): 10- to 100 fold | effect on viral titers, NL11 compared with NL09 (NL09 and NL11 strains): significantly stronger in NL11-infected cells | reduction in viral titers (NL09 and NL11 strains): 10- to 1000 fold | antiviral effect in hPCLSs compared to A549 cells (NL09 or NL11): more potent antiviral effect | significance of viral titer reduction in infected hPCLSs (NL09 or NL11): consistently significant after 48 hpi | time at which inhibition of virus replication in hPCLSs was observed (NL09 or NL11): ≤ 12 hpi | selectivity for c-Raf relative to B-Raf (c-Raf): ~ 10 fold | higher selectivity for c-Raf than vemurafenib (c-Raf): 10 fold | potency in primary bronchial cells vs A549 cells (IAV): less potent in primary bronchial cells than in A549 cells | effect on viral entry (NP staining) (NL09 or NL11 strain): inhibited | relative infectivity, NL09 [4]: 75%

Cc1cc(Nc2ncnc3ccc(NC4=NC(C)(C)CO4)cc23)ccc1Oc1ccn2ncnc2c1 [TU, tucatinib]
relative infectivity, NL11 [1]: 100% | highest viral titer reduction at MOI = 0.1 (NL09 and NL11): 10 fold | reduction of the titers of both viruses (NL09 and NL11 strains): 10- to 30 fold | time at which inhibition of virus replication in hPCLSs was observed (NL09 or NL11): ≤ 12 hpi | effect on viral entry (NP staining) (NL09 or NL11 strain): no obvious effects on viral entry | relative infectivity, NL09 [4]: 86%

Reference: PMC9504178 (Viruses, 2022)
